Our source for the IC50, inhibition and Ratio IC50 values is ChEMBL document CHEMBL1667857, “Discovery of dual binding site acetylcholinesterase inhibitors identified by pharmacophore modeling and sequential virtual screening techniques” (Bioorg Med Chem Lett, 2011).

Experiment [1] addresses Acetylcholinesterase (Electrophorus electricus, UniProt O42275). The experiment is described as follows: Inhibition of electric eel AChE by Ellman's method.
Experiment [2] has as its target Cholinesterase (Homo sapiens) (UniProt P06276). The experiment is described as follows: Inhibition of BChE by Ellman's method. The following applies: concentration not given here.
Experiment [3] can be described thus: Selectivity index, ratio of IC50 for electric eel AChE to IC50 for BChE.

Acetylcholinesterase, sequence (O42275 whole entry): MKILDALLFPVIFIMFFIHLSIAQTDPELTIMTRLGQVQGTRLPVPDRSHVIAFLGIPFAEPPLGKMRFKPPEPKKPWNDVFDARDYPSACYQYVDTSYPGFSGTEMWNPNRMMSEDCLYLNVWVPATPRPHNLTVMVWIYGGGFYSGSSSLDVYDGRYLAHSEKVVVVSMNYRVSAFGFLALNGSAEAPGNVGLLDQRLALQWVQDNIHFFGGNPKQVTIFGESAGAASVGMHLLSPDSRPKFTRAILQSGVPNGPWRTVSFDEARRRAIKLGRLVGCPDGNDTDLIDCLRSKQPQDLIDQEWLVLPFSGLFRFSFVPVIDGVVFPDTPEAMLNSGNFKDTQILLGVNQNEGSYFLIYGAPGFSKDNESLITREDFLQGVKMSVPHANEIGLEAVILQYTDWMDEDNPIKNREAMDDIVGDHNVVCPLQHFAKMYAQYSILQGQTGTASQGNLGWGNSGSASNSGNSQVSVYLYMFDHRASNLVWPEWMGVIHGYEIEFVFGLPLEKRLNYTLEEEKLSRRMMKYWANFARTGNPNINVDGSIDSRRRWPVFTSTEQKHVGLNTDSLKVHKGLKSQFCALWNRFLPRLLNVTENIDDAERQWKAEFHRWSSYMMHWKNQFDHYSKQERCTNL
Cholinesterase (Homo sapiens), sequence (P06276 whole entry): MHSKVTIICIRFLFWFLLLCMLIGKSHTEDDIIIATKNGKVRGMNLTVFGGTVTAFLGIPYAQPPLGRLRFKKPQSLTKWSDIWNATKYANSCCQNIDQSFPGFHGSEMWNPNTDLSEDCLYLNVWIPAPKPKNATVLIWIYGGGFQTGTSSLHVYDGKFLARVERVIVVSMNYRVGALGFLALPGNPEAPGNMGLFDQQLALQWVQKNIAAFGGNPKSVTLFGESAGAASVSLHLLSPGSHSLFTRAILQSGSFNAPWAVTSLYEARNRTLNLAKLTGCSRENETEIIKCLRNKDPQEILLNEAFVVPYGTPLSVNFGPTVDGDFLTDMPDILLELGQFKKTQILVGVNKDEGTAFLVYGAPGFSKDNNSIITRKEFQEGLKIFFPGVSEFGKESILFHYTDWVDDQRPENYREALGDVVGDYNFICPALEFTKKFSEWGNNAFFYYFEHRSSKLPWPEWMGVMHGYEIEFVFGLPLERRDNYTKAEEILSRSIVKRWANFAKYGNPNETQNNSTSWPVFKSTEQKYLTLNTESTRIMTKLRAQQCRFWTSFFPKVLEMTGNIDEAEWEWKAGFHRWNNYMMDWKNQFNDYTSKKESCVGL

For the compound `CCOC(=O)c1c(NC(=O)CCN2CCC(C)CC2)sc2c1C[C@@H](C)CC2`, the IC50 in experiment [1] is 5990 nM. The compound further returned an inhibition in experiment [2] of less than 10%.
On to `CCOC(=O)c1c(-c2ccc(OC)c(OC)c2)csc1NC(=O)CCN1CCC(C)CC1`, for which half-maximal inhibition in experiment [1] (IC50) was put at 3280 nM. This compound had an inhibition in experiment [2] of less than 10%.
In experiment [1], `COc1ccc(Br)cc1C(=O)Nc1ccc(CN2CCCCC2)cc1` came in with an IC50 of 1000 nM.
Same read-out and setting: the value for `Cc1ccc(OCC(=O)Nc2ccc(CN3CCCCC3)cc2)c(C)c1` was 1000 nM.
On the same count and under the same terms, with `Cc1cc(N2CCCC2)nc2ccc(NC(=O)CCC(=O)NC3CCCCC3)cc12` the figure was 1000 nM; with `O=C(CN1CCCCC1)Nc1ccc(NC(=O)CN2CCCCC2)c(Cl)c1`, 1000 nM.
Same read-out and setting: the value for `CCN(CC)c1ccc(NC(=O)c2nc3nc(C)cc(C(F)F)n3n2)cc1` was 1000 nM; that for `CCc1nc2sc3c(NCCN(C)C)ncnc3c2c2c1CCCC2` was 1000 nM.
In the case of `O=C(C1CCN(c2nnc(N3CCCC3=O)s2)CC1)N1CCCCCC1`, in experiment [1], the IC50 was determined as 1000 nM. For the same compound, the Ratio IC50 in experiment [3] turned out to be 342.
For `CCc1nn(CC(=O)NCCCN2C[C@H](C)C[C@@H](C)C2)c(=O)c2cc3sc(C)cc3n12`, in that order: 2000 nM and 698.
